According to patent US12404244B2, “Pan-KIT kinase inhibitor having quinoline structure and application thereof” (Tarapeutics Science Inc., priority 2018, dated 2025):
Where two headings read alike, the source gives them in different places.

How the values were obtained:
[1] = test system: GIST-T1-T670I mouse tumor model; test: Tumor-grafted mouse model established with GIST-T1-T670I cells; type: in vivo; conditions: oral, every day
Description: In this example Compound 1 and Compound 2 were respectively tested in TEL-cKIT/T670I-BaF3, TEL-cKIT/Y823D-BaF3, TEL-cKIT/D820G-BaF3 and GIST-T1-T670I mouse models.
Experimental protocols were as follows. • (1) Bal b/c female mice aged 4-6 weeks were purchased from Beijing Weitong Lihua Laboratory Animal Co., Ltd., and the mice were raised in an SPF laboratory. The drinking water and padding were sterilized by autoclaving. All operations on mice were conducted under aseptic conditions. • (2) About 5×10^6 TEL-cKIT/T670I-BaF3, TEL-cKIT/Y823D-BaF3, TEL-cKIT/D820G-BaF3 or GIST-T1-T670I cells were respectively injected subcutaneously onto the left back of all mice on Day 0. • (3) From Day 6, for the TEL-cKIT/T670I-BaF3 mouse model the corresponding mice were administrated orally every day with methylcellulose (HKI) as the vehicle (5 mice); with Compound 1 and Compound 2 at a dosage of 10 mg/kg, 20 mg/kg, 40 mg/kg, 100 mg/kg mouse weight (5 mice in each group); and with Sunitnib (purchased from MedChemExpress, China) at a dosage of 40 mg/kg mouse weight (5 mice). From day 6, for the TEL-cKIT/Y823D-BaF3 and TEL-cKIT/D820G-BaF3 mouse models the corresponding mice were administrated orally every day with methylcellulose (HKI) as the vehicle (5 mice); with Compound 1 and Compound 2 at a dosage of 40 mg/kg, 80 mg/kg mouse weight (5 mice in each group); and with Sunitnib (purchased from MedChemExpress, China) at a dosage of 40 mg/kg mouse weight (5 mice). From day 15, for the GIST-T1-T670I mouse model the corresponding mice were administrated orally every day with methylcellulose (HKI) as the vehicle (5 mice); with Compound 1 and Compound 2 at a dosage of 20 mg/kg, 40 mg/kg, 80 mg/kg mouse weight (5 mice in each group); and with Sunitnib at a dosage of 40 mg/kg mouse weight (5 mice). • (4) From day 6 (TEL-cKIT/T670I-BaF3, TEL-cKIT/Y823D-BaF3, TEL-cKIT/D820G-BaF3 mouse model) and From day 15 (GIST-T1-T670I mouse model), respectively, the length/width of the subcutaneous tumor were measured with a vernier caliper every day and the body weight of the mouse was recorded every day so as to determine the effects of Compound 1 and Compound 2 on the body weight and tumor size of the mice, respectively. • (5) The mice were sacrificed on Day 11 after administration for the TEL-cKIT/T670I-BaF3 mouse model, on Day 9 after administration for the TEL-cKIT/Y823D-BaF3 and TEL-cKIT/D820G-BaF3 mouse models, and on Day 28 after administration for the GIST-T1-T670I mouse model. The subcutaneous tumors were taken out, and the tumors were weighed and compared. • (6) The growth trend of subcutaneous tumors was calculated and the tumor size was calculated according to: length×width×width/2 mm^3.

BaF3 = test: Proliferation of parental BaF3 cells (CCK-8); type: cell-based, mouse; conditions: Mus musculus, read-out: GI50 BaF3
Source text: Compounds as provided herein were further evaluated for their inhibitory effects on proliferation of cancer cells by testing their effects on growth of cancer cells. In this example the following cells were used: primary mouse B cells BaF3 (purchased from ATCC), GIST-T1 cells of the human gastrointestinal stromal tumor cell line (expressing wild-type KIT gene) (purchased from Cosmo Bio Co., Ltd. (Japan)). The present lab further constructed and used the following: mouse Tel-Kit-BaF3 (stably expressing KIT wild-type kinase), mouse Tel-Kit/T670I-BaF3 (stably expressing KIT T670I mutant kinase), mouse Tel-Kit/V559A-BaF3 (stably expressing KIT V559A mutant kinase), mouse Tel-Kit/V559D-BaF3 (stably expressing KIT V559D mutant kinase), mouse Tel-Kit/V559G-BaF3 (stably expressing KIT V559G mutant kinase), mouse Tel-Kit/V560D-BaF3 (stably expressing KIT V560D mutant kinase), mouse Tel-Kit/L576P-BaF3 (stably expressing KIT L576P mutant kinase), mouse Tel-Kit/V654A-BaF3 (stably expressing KIT V654A mutant kinase), mouse Tel-Kit/V654A/V559D-BaF3 (stably expressing KIT V654A V559D mutant kinase), mouse Tel-Kit/T670E-BaF3 (stably expressing KIT T670E mutant kinase), mouse Tel-Kit/T670I/V559D-BaF3 (stably expressing KIT T670I V559D mutant kinase), mouse Tel-Kit/S709F-BaF3 (stably expressing KIT S709F mutant kinase), mouse Tel-Kit/D816E-BaF3 (stably expressing KIT D816E mutant kinase), mouse Tel-Kit/D816H-BaF3 (stably expressing KIT D816H mutant kinase), mouse Tel-Kit/D820E-BaF3 (stably expressing KIT D820E mutant kinase), mouse Tel-Kit/D820G-BaF3 (stably expressing KIT D820G mutant kinase), mouse Tel-Kit/D820Y-BaF3 (stably expressing KIT D820Y mutant kinase), mouse Tel-Kit/N822K-BaF3 (stably expressing KIT N822K mutant kinase), mouse Tel-Kit/Y823D-BaF3 (stably expressing KIT Y823D mutant kinase), mouse Tel-Kit/A829P-BaF3 (stably expressing KIT A829P mutant kinase), GIST-T1-T670I cells of the human gastrointestinal stromal tumor cell line (expressing KIT-T670I mutant gene). The above cell lines were constructed by: amplifying respectively the sequences of human KIT and various mutant kinase regions of KIT via PCR, inserting the fragments respectively into MSCV-Puro vectors having a N-terminal TEL fragment and/or a NPM fragment and/or a TPR fragment (purchased from Clontech), transfecting mouse BaF3 cells with the vectors by means of retrovirus to obtain stably transfected cells, removing the growth factor IL-3, and thereby eventually obtaining cell lines that depend on the transferred protein KIT or various mutants of KIT. The GIST-T1-T670I (expressing C-KIT-T670I mutant gene) cell line was constructed by our laboratory as follows: designing sgRNA that targeted a region around T670 of the KIT gene with CRISPR Design Tool (website: crispr.mit.edu, Zhang Feng Lab), cloning it into pSpCas9(BB)-2A-Puro vector; co-transfecting cells with the resultant vector and a single-stranded oligonucleotide having T670I site mutation that is near to T670, subjecting the resultant to antibiotics screening, followed by dilution, and monocellular culture in a 96-well plate; validating the site T670 of the cells by sequence detection via Sanger sequencing.
The cells after incubation were detected using CCK-8 (purchased from MedChem Express, Shanghai, China) cell viability assay kit (CCK-8 may be reduced by dehydrogenase in living cells to a highly water-soluble yellow formazan product, and the amount of the resultant formazan is proportional to the number of living cells), the number of living cells were quantified with a microplate reader, and GI50 of the compounds and the control compounds were calculated (the results shown in Table 2 and Table 3).

Row | Structure (SMILES) | inhibitory effects against tumor in mice ([1]; 40 mg/kg) | tumor inhibition rate ([1]; 40 mg/kg) | influence on mice weight [1] | GI50 (BaF3; BaF3 parent cells, 72 hours, CCK-8) | GI50 (BaF3; BaF3, 72 h)
1 | COc1cc2nccc(Oc3ccc(NC(=O)Cc4ccc(Cl)c(C(F)(F)F)c4)cc3)c2cc1OC [Example 2, N-(4-((6,7-dimethoxyquinolin-4-yl)oxy)phenyl)-2-(4-chloro-3-(trifluoromethyl)phenyl)-acetamide] | excellent inhibitory effects against tumor in mice | ≥ 80% | without significant influence on mice weight | 5.97 µM | –
2 | COc1cc2nccc(Oc3ccc(NC(=O)Cc4ccc(C)c(C(F)(F)F)c4)cc3)c2cc1OC [Example 1, N-(4-((6,7-dimethoxyquinolin-4-yl)oxy)phenyl)-2-(4-methyl-3-(trifluoromethyl)phenyl)acetamide] | excellent inhibitory effects against tumor in mice | – | without significant influence on mice weight | – | 7.26 µM
